Results published in patent US10064890B2, “Amorphous calcium carbonate for the treatment of calcium malabsorption and metabolic bone disorders” (AMORPHICAL LTD, priority 2011, dated 2018).
Where a name gives a salt, the structure may show the parent alone. Marks after values point to notes of the source that are not given here.

Assays:
[1] = Trial 1: serum calcium pharmacokinetics after single oral capsule of 45Ca-labeled calcium carbonate; design: species or system Wistar rats; conditions: rat, in vivo
Protocol: (§1) Twenty-six 2 month-old male Wistar rats, weighing 240±15 g, were orally administered with a single gelatin capsule containing either ACC (amorphous calcium carbonate) or CCC (crystalline calcium carbonate) intrinsically labeled with ^45Ca, followed by measurements of calcium fractional absorption in serum and calcium excretion.
All animals were treated according to the Israel Animal Welfare Act under the supervision of the Ben-Gurion University Animal Care and Use program. Fifty-one two month-old male Wistar rats (Harlan-Teklad, Jerusalem, Israel), weighing 240±15 g, were randomly housed in 12 stainless steel cages in an environmentally-controlled room (23° C. temperature, 12:12 h light:dark cycle). The rats were fed laboratory rat chow pellets adequate in nutrients ad libitum (Koffolk, Petah-Tikva, Israel) and had free access to water for 48 h. Four days before the beginning of the experiment, the regular diet was replaced with a low calcium diet containing 0.24±0.05% calcium (0.675±0.05% phosphate), specially prepared by mixing two food types containing, respectively, 0.01% calcium (0.3% phosphate; Harlan-Teklad) and 1% calcium (0.8% phosphate; Koffolk). The two food types were separately ground in a mill to yield two powders which were dry mixed in a ratio of 4:1, respectively, until fine homogenization. The homogenized powder was extruded to form new food pellets.
Seventeen hours prior to capsule administration, the rats were weighed and blood samples were taken (baseline). The rats were then placed into individual metabolic cages and deprived of food and water until 3 h post-capsule administration. Three and 24 h post-dosing, ˜10 g of low calcium food pellets (0.01% calcium; Harlan-Teklad) were given to each rat. Distilled water was allowed ad libitum starting three h post-capsule administration.
Each rat was lightly sedated for 30 seconds with isoflurane (Minrad) diluted 1:4 (v:v) with propylene glycol (BioLab). A single capsule containing a specific calcium carbonate preparation (i.e. CCC, ACC, or ACC-C; n=17 for each group) was administered intragastrically to each of the experimental rats using a stainless steel rat administration syringe (Harvard Apparatus).
Blood samples of […] were taken from each rat's tail vein 17 h prior to capsule administration (time 0) and 2, 3, 6, 10, 24 and 34 h post-administration. The blood samples were immediately centrifuged for 10 minutes at 3000 g using a tabletop centrifuge (Hettich Zentrifugen, Bach, Switzerland). Duplicate samples (30 μl) of the supernatant serum were transferred into plastic vials containing scintillation liquid (Zinsser Analytic, Berkshire, UK) and radioactivity was measured using a liquid scintillation counter (Tri-Carb 2100TR, PerkinElmer, Boston, Mass.). Plasma radioactivity from the given dose were normalized according to the measured radioactivity and specific radioactive dose that each rat received [(serum cpm×100)/(total cpm×sample volume)].
Non-compartmental analysis of an individual rat's calcium concentration versus time data was performed using WinNonLin 5.2 software (Pharsight, Mountain View, Calif.).

[2] = Trial 1: calcium retention (intake minus feces and urine excretion); format: in vivo, Wistar rats; conditions: 34 h feces and urine collection, rats
Protocol: as §1
Feces and urine were collected during the 17 h starvation phase during the acclimation period (baseline) and during the entire 34 h of the experiment to evaluate calcium. Samples of urine (500 μL) were transferred into plastic vials filled with scintillation liquid. Feces were dried overnight at 70° C. in an oven. The samples were ground in a mortar until fine homogenization. Feces samples (200 mg) were placed into 5 ml of 1 N NaOH solution (Gadot, Netanya, Israel), incubated for 3 hours at 80° C. and centrifuged for 10 minutes at 3,600 g. Duplicate samples of the supernatant (30 μL) were transferred into plastic vials containing scintillation liquid. Radioactivity of the urine and feces samples was measured using a liquid scintillation counter. Retention values were calculated by subtracting the radioactivity measured in the feces and urine from the given dose […].

[3] = test system: ovariectomized (OVX) rat model; assay: Trial 6: micro-CT of distal femur and 4th lumbar vertebra, ACC with or without alendronate; format: in vivo, Sprague Dawley rats; conditions: for SMI / TBPf / Tb. N / Tb. Sp / Tb. Th: OVX rats, 4 months treatment
Protocol: The inventors have conducted a study aiming to evaluate the effects of Amorphous Calcium Carbonate (ACC) on bone mineral density and bone fraction in metabolic bone disorders, and specifically osteoporosis as presented in the ovariectomized (OVX) rat model wherein the ACC is administered in combination with a standard medication for osteoporosis. In the present trial, five groups of rats were tested (4 OVX and 1 sham). Following operation, all rats were left untreated (fed with standard laboratory diet) to develop osteopenia for a period of 2 months. […] In addition, the animals were i.v injected (3 times/week) with either saline or 2 μg/kg alendronate (ALN) according to their group assignment, as described in Table 16.
A CCC mix containing 1% elemental calcium from crystalline calcium carbonate (Socal® Precipitated Calcium Carbonate), and an ACC mix containing 1% elemental calcium from stable amorphous calcium carbonate (containing 1% phosphoserine and 2% Citrate; Amorphical Ltd., Beer-Sheva, Israel).
Following 2 months, rats started treatment according to their assignment as described in Table 16 for a period of 4 months. […] Food consumption and body weight were recorded weekly (Table 17). At the end of the treatment period, all rats were sacrificed by CO2.

[4] = test system: ovariectomized (OVX) rat model; assay: Trial 7: micro-CT of distal femur and 4th lumbar vertebra; conditions: for Tb. N / Tb. Sp / Tb. Th: OVX rats, 90 days; for DA: sham group lower than the OVX group by / SMI: sham group lower than the OVX group by / TBPf: sham group lower than the OVX group by: 4th-lumbar vertebra, difference from sham; for trabecular bone region in μCT three-dimensional reconstruction: distal femur and 4th vertebra, FIG. 7, in comparison to the Sham; for trabecular femoral BMD: Sham group higher compared to the OVX group by: femur, difference from Sham
Protocol: In the study, five groups of rats were tested (4 ovariectomized and 1 sham). The OVX animals were fed with special food mixtures in the form of pellets from four different calcium sources: commercial crystalline calcium carbonate served as control (mix A), natural ACC (Gastrolith powder) (mix B), synthetic ACC (comprising trace amounts of phospho-serine) (mix C), and commercial crystalline calcium citrate (mix D). Sham group was administrated with the same food as the control. Pellets from all four mixtures contained ˜0.5% elemental calcium as confirmed by atomic absorption apparatus (Varian AA240, Palo Alto, Calif., USA) and described in Table 19 with no added vitamin D, except for the amounts found in the original food pellets (22 IU vitamin D/g).
For the administration of the different calcium sources, special food pellets containing were prepared. Low calcium rodent pellets containing 0.02% calcium (Rat chow #TD95027 Harlan Inc., Jerusalem, Israel) was finely grounded and separately mixed with four different calcium sources. […] Every mix was separately pelleted and kept in a sealed bag at room temperature.
Rats were randomly assigned and operated according to their assigned five groups: Sham (sham-Ovariectomized) fed with mix A, and four other groups were ovariectomized (OVX) using a bilateral dorsal approach according to Lasota and Danowska-Klonowska (2004) Rocz Akad Med Bialymst 49 Suppl 1:129-131, and divided to OVX Control (fed with mix A), OVX Gast (fed with mix B), OVX ACC (fed with mix C) and OVX Citrate (fed with mix D). Following operation, rats were provided a 7 days recovery period under the same conditions as the acclimation period, standard laboratory diet ad-libitum and de-ionized water containing 1.5 ml/400 ml Dipyrone (Vitamed Ltd, Binyamina, Israel), and 1 mg/kg Enrofloxacin (Buyer Ltd. Leverkusen, Germany).
At the end of the recovery period the rats were group-housed in 47 cages (2 rats/cage) according to the group assignment, under the same controlled room conditions as described above. The assigned supplemental pellets and de-ionized water were provided ad-libitum during the entire treatment period (90 days). […] For dynamic histomorphometric analysis fluorochrom dye Calcein (20 mg/kg body mass; Sigma-Aldrich, Israel) was IP injected to all rats at days 76 and 86. On day 90, rats were individually housed in metabolic cages and deprived from food and water for 18 h. Urine was collected from each metabolic funnel and was stored at −80° C. for future analysis of bone resorption biochemical marker at end of the experiment (Time 90). Immediately after urine sampling, serum samples were extracted for evaluation of formation biochemical marker of day 90 and stored in the same manner as described at day 0. All rats were sacrificed by CO2. Right femurs and 4th lumbar vertebras were dissected, wrapped with gaze pads soaked with saline buffer and kept in −80° C. for measurement of bone micro-CT scan. The 5th lumbar vertebras were stored in the same conditions as the right femurs for mechanical testing. Right tibias were dissected and placed immediately for 24 h at 4° C. in 3.7% formaldehyde solution (F1636, Sigma-Aldrich, Israel) for structural and dynamic histomorphometric measurements.
Trabecular and cortical bone microarchitecture of right femurs and 4th lumbar vertebras were analyzed using a μCT scanner (Skyscan 1174, Kartuizersweg Kontich, Belgium).

[5] = test system: ovariectomized (OVX) rat model; assay: Trial 7: mechanical strength of the 5th lumbar vertebra (compression test); format: in vivo, Sprague Dawley rats
Protocol: (§2) All rats were sacrificed by CO2.
Mechanical properties (Ultimate force, Energy to ultimate force, Toughness and Energy to yield) were obtained from the compression tests of 5th lumbar vertebral body (L5). Calculation of the material properties were performed by measuring the height of the vertebral body and the average of caudal and cranial diameters using a caliper. Cross sectional area (CSA) and bone volume (BV) were obtained by μCT scanning that covered the entire bone including both trabecular and cortical shell.

[6] = test system: ovariectomized (OVX) rat model; assay: Trial 7: bone turnover biochemical markers (urine DPD, serum OC) by EIA; format: in vivo, Sprague Dawley rats; conditions: day 90, OVX rats
Protocol: as §2
Serum Osteocalcin (OC) concentration was determined by EIA kit (#BT-490, Biomedical Technologies Inc. Stoughtone, USA) following a 1:10 serum dilution.
Urinary Deoxypyridinoline (DPD) concentration was determined by commercial EIA kit (#8007, Qudiel Inc. San Diego, USA) following a 1:50 dilution. DPD levels were normalized to Creatinine levels (#8009, Qudiel Inc. San Diego, USA).

[7] = test system: ovariectomized (OVX) rat model; assay: Trial 7: histomorphometry of un-decalcified proximal tibia sections; format: in vivo, Sprague Dawley rats; conditions: for BFR/BS / MAR / MS/BS: dynamic (calcein); for BFR/BS / MAR / MS/BS / BV/TV / Tb. N / Tb. Sp / Tb. Th: OVX rats; for BV/TV / Tb. N / Tb. Sp / Tb. Th: structural, 90 days
Protocol: as §2
Right tibias were removed from the formaldehyde solution and dehydrated through an ethanol gradient, cleared using xylene (24250521, Bio-Lab Ltd. Haifa, Israel), and infiltrated with 80% methylmethacrylate (MMA; M5599, Sigma Aldrich, Rehovot, Israel)+20% dibutyl phthalate (DBP; 61-5062, Merck Ltd, Hohenbrunn, Germany) for 3 days at 4° C. Specimens were then transferred to MMA+DBP+Benozoyl peroxide (617008, Merck Ltd, Hohenbrunn, Germany) solution for another 6 days infiltration at 4° C. Following infiltration procedure, specimens were embedded in MMA+DBP+2.5% Benozoyl peroxide under a temperature gradient (from 38° C. to 50° C. over a period of 4 days). Mid-sagittal (4 μm) un-decalcified sections from each specimen were cut using a Lecia RM 2025 microtome (Lecia Instruments Ltd, Petach Tikva, Israel) connected to tungsten carbide knifes (Disposable blade; TC65, Rhenium Inc. Bet-Nekufa, Israel). Most sections were stained with McNeal's tetrachrome for structural histomorphometry. The remaining sections were left unstained for dynamic histomorphometry.
Measurement of both structural and dynamic histomorphometry of the proximal tibia metaphisyes were obtained using a semi-automatic analysis system (Bioquant OSTEO, ver. 7.20.10, BIOQUANT Image Analysis Corporation Nashville, USA) which is connected to a microscope (Nikon Optiphot 2, Kingston, England) equipped with fluorescent light source.

Molecule | AUC∞ [1] | Cmax [1] | Tmax [1] | Tb. N ([4]; 4th lumbar vertebra) | Tb. Sp ([4]; 4th lumbar vertebra) | Tb. Th ([4]; 4th lumbar vertebra) | DA: sham group lower than the OVX group by [4] | SMI: sham group lower than the OVX group by [4] | TBPf: sham group lower than the OVX group by [4] | trabecular bone region in μCT three-dimensional reconstruction [4] | Tb. N ([4]; distal femur metaphysis) | Tb. Sp ([4]; distal femur metaphysis) | Tb. Th ([4]; distal femur metaphysis) | trabecular femoral BMD: Sham group higher compared to the OVX group by [4] | mechanical strength properties lower in comparison to Sham (average) [5] | DPD (urine deoxypyridinoline resorption marker) [6] | OC (serum osteocalcin formation marker) [6] | trabecular bone fraction and condensed trabeculas values lower compared to the Sham (average) [7] | trabecular separation higher in comparison to Sham [7] | BFR/BS [7] | also measured
O=C([O-])[O-].[Ca+2] [CCC, crystalline calcium carbonate] | 109.7 ± 6.4 ^a μg × h/mL | 5.8 ± 0.07 ^a μg/mL | 3.0 ± 0.3 ^a h |  |  |  |  |  |  |  |  |  |  |  |  |  |  |  |  |  | retention of the received dose [2]: 48.5±1.3%; SMI ([3]; 4th lumbar vertebra): 1.62; TBPf ([3]; 4th lumbar vertebra): 8.5 mm^−1; Tb. N ([3]; 4th lumbar vertebra): 1.75 mm^−1; Tb. Sp ([3]; 4th lumbar vertebra): 374 μm; Tb. Th ([3]; 4th lumbar vertebra): 98.4 μm; trabecular bone region in μCT three-dimensional reconstruction ([3]; distal femur and 4th vertebra, FIG. 5, compared to CCC / third group): lowest trabecular bone region; SMI ([3]; distal femur metaphysis): 1.66; TBPf ([3]; distal femur metaphysis): 7.6 mm^−1; Tb. N ([3]; distal femur metaphysis): 1.5 mm^−1; Tb. Sp ([3]; distal femur metaphysis): 682 μm; Tb. Th ([3]; distal femur metaphysis): 110 μm
amorphous calcium carbonate [ACC] | 134.5 ± 7.0 ^b μg × h/mL | 8.1 ± 0.8 ^b μg/mL | 2.8 ± 0.2 ^a h |  |  |  |  |  |  |  |  |  |  |  |  |  |  |  |  |  | 
O=C([O-])[O-].[Ca+2] [Control, calcium carbonate] |  |  |  | 1.57^b mm^−1 | 254^b μm | 87.5 μm | 22% | 43% | 91% | lowest trabecular bone region | 2.2^b mm^−1 | 248^b μm | 29.0^b μm | 64% | 41% | 36.65^be nmol/mmol Cr | 14.8^a ng/ml | 55% | 130% | 0.164^a μm^2/μm/day | BV/TV and Tb.N lower on average in comparison to the Sham ([4]; distal femur): 65%; BV/TV and Tb.N lower on average in comparison to the Sham ([4]; vertebra): 60%; MAR [7]: 1.30 μm/day; MS/BS [7]: 8.31^a %; BV/TV [7]: 12.8^b %; Tb. N [7]: 2.5^b mm^−1; Tb. Sp [7]: 296^b μm; Tb. Th [7]: 47.1^a μm
O=C(O)CC(O)(CC(=O)O)C(=O)O [Citrate, calcium citrate] |  |  |  | 1.59^b mm^−1 | 262^b μm | 86.6 μm | 22% | 43% | 91% | lowest trabecular bone region | 2.4^b mm^−1 | 226^bd μm | 29.1^b μm | 63% | 40% | 43.55^e nmol/mmol Cr | 15.7^a ng/ml | 55% | 148% | 0.159^a μm^2/μm/day | trabecular bone fraction and its number, Citrate compared with Control ([4]; micro-CT): No significant differences; trabecular thickness higher compared to Control [7]: 13%; MS/BS lower from the ACC group ([7]; Citrate vs ACC): 26%; bone formation rate lower from ACC ([7]; Citrate vs ACC): 26%; MS/BS lower from the Gast group ([7]; Citrate vs Gast): 29%; bone formation rate lower from Gast ([7]; Citrate vs Gast): 28%; MAR [7]: 1.40 μm/day; MS/BS [7]: 8.25^a %; BV/TV [7]: 12.8^b %; Tb. N [7]: 2.3^b mm^−1; Tb. Sp [7]: 318^b μm; Tb. Th [7]: 53^b μm
